Measured values: patent US8906904B2, “Alkoxy pyrazoles as soluble guanylate cyclase activators” (Boehringer Ingelheim International GmbH, priority 2012, dated 2014)
Values after ≈ are worked out from the molar mass of the structure shown.

Assay: Assessment of solubility (McIlvaine buffers, 24 h shake, UPLC-UV)
Type: physicochemical
Settings: kinetic from dmso stock
How it was run: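 Compounds from 10 mM DMSO stocks were shaken for 24 h at room temperature in McIlvaine buffers at pH 2.2, 4.5 and 6.8 (2.5% v/v DMSO final), then filtered. Filtrates were quantified by UPLC-UV at 254 nm against a 50:50 acetonitrile/water reference assumed fully dissolved, as a single determination.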

| solubility at 24 h (pH 2.2, aqueous buffer) [µg/mL] | solubility at 24 h (pH 4.5, aqueous buffer) [µg/mL] | solubility at 24 h (pH 6.8, aqueous buffer) [µg/mL] | SMILES |
| --- | --- | --- | --- |
| 110 (≈ 193 µM) | 87 (≈ 152 µM) | 87 (≈ 152 µM) | CCOc1c(C(=O)O)cnn1-c1cccc(-c2cccc(C)c2OCc2cc(C)c3c(c2)CCN(C(C)COC)C3)n1 (stereo not drawn) [Compound 210] |
| 100 (≈ 179 µM) | 75 (≈ 134 µM) | 81 (≈ 145 µM) | COc1c(C(=O)O)cnn1-c1cccc(-c2cccc(C)c2OCc2cc(F)c3c(c2)CCN([C@@H]2CCOC2)C3)n1 [Compound 253] |
| 94 (≈ 161 µM) | 75 (≈ 129 µM) | 74 (≈ 127 µM) | CCc1cc(COc2c(C)cccc2-c2cccc(-n3ncc(C(=O)O)c3OC)n2)cc2c1CN(C1CCOCC1)CC2 [Compound 248] |
| 98 (≈ 168 µM) | 83 (≈ 142 µM) | 86 (≈ 148 µM) | CCOc1c(C(=O)O)cnn1-c1cccc(-c2cccc(C)c2OCc2ccc3c(c2C)CCN(C[C@H]2CCO2)CC3)n1 [Compound 226] |
| 81 (≈ 133 µM) | 64 (≈ 105 µM) | 69 (≈ 113 µM) | CCOc1c(C(=O)O)cnn1-c1cccc(-c2cccc(C)c2OCc2ccc3c(c2C)CCN(C[C@H]2CCCCO2)CC3)n1 [Compound 214] |
| 85 (≈ 146 µM) | 71 (≈ 122 µM) | 73 (≈ 125 µM) | COc1c(C(=O)O)cnn1-c1cccc(-c2cccc(C)c2OCc2ccc3c(c2C)CCN(C[C@H]2CCCO2)CC3)n1 [Compound 222] |
| 82 (≈ 140 µM) | 47 (≈ 80.1 µM) | 57 (≈ 97.2 µM) | CCOc1c(C(=O)O)cnn1-c1cccc(-c2cccc(C)c2OCc2ccc3c(c2C)CCN(CC2(F)COC2)C3)n1 [Compound 208] |
| 90 (≈ 162 µM) | 75 (≈ 135 µM) | 71 (≈ 128 µM) | COc1c(C(=O)O)cnn1-c1cccc(-c2cccc(C)c2OCc2ccc3c(c2)CN(CC2COCCO2)C3)n1 (stereo not drawn) [Compound 247] |
| 100 (≈ 172 µM) | 79 (≈ 136 µM) | 92 (≈ 158 µM) | CCOc1c(C(=O)O)cnn1-c1cccc(-c2cccc(C)c2OCc2ccc3c(c2)CCCN(C2CCCOC2)C3)n1 (stereo not drawn) [Compound 245] |
| 100 (≈ 175 µM) | 72 (≈ 126 µM) | 94 (≈ 165 µM) | CCOc1c(C(=O)O)cnn1-c1cccc(-c2cccc(C)c2OCc2ccc3c(c2OC)CCN(C2COC2)C3)n1 [Compound 221] |
| 96 (≈ 165 µM) | 78 (≈ 134 µM) | 81 (≈ 139 µM) | CCOc1c(C(=O)O)cnn1-c1cccc(-c2cccc(C)c2OCc2ccc3c(c2C)CCN(C[C@@H]2CCO2)CC3)n1 [Compound 228] |
| 92 (≈ 157 µM) | 69 (≈ 118 µM) | 67 (≈ 115 µM) | COc1c(C(=O)O)cnn1-c1cccc(-c2cccc(C)c2OCc2cc(C)c3c(c2)CCN(CC2COCCO2)C3)n1 (stereo not drawn) [Compound 240] |
| 100 (≈ 179 µM) | 72 (≈ 129 µM) | 77 (≈ 138 µM) | COc1c(C(=O)O)cnn1-c1cccc(-c2cccc(C)c2OCc2ccc3c(c2F)CCN([C@H]2CCOC2)C3)n1 [Compound 251] |
| 77 (≈ 135 µM) | 55 (≈ 96.7 µM) | 52 (≈ 91.4 µM) | COc1c(C(=O)O)cnn1-c1cccc(-c2cccc(C)c2OCc2ccc3c(c2C)CCN(C2CCCOC2)C3)n1 (stereo not drawn) [Compound 238] |
| 94 (≈ 169 µM) | 67 (≈ 121 µM) | 93 (≈ 168 µM) | CCc1cc(COc2c(C)cccc2-c2cccc(-n3ncc(C(=O)O)c3OC)n2)cc2c1CN(C1COC1)CC2 [Compound 249] |
| 87 (≈ 152 µM) | 68 (≈ 119 µM) | 66 (≈ 115 µM) | COc1c(C(=O)O)cnn1-c1cccc(-c2cccc(C)c2OCc2cc(F)c3c(c2)CCN(C2CCOCC2)C3)n1 [Compound 201] |
| 82 (≈ 137 µM) | 72 (≈ 120 µM) | 73 (≈ 122 µM) | COc1c(C(=O)O)cnn1-c1cccc(-c2cccc(C)c2OCc2ccc3c(c2C)CCN(C[C@@H]2COCCO2)CC3)n1 [Compound 204] |
| 100 (≈ 176 µM) | 81 (≈ 142 µM) | 84 (≈ 148 µM) | CCOc1c(C(=O)O)cnn1-c1cccc(-c2cccc(C)c2OCc2cc(C)c3c(c2)CCN(C2CCOC2)C3)n1 (stereo not drawn) [Compound 241] |
| 91 (≈ 160 µM) | 71 (≈ 125 µM) | 72 (≈ 127 µM) | COc1c(C(=O)O)cnn1-c1cccc(-c2cccc(C)c2OCc2cc(C)c3c(c2)CCN(CC2(C)COC2)C3)n1 [Compound 239] |

Continued, molecule first:

| SMILES | solubility at 24 h (pH 2.2, aqueous buffer) [µg/mL] | solubility at 24 h (pH 4.5, aqueous buffer) [µg/mL] | solubility at 24 h (pH 6.8, aqueous buffer) [µg/mL] |
| --- | --- | --- | --- |
| COc1c(C(=O)O)cnn1-c1cccc(-c2cccc(C)c2OCc2ccc3c(c2)CCN(CC2CC2)C3)n1 [Compound 24] | 95 (≈ 181 µM) | 76 (≈ 145 µM) | 76 (≈ 145 µM) |
| COc1c(C(=O)O)cnn1-c1cccc(-c2cccc(C)c2OCc2ccc3c(c2Cl)CCN(C2COC2)C3)n1 [Compound 17] | 97 (≈ 173 µM) | 62 (≈ 111 µM) | 85 (≈ 152 µM) |
| CCOc1c(C(=O)O)cnn1-c1cccc(-c2cccc(C)c2OCc2ccc3c(c2C)CCN(C(C)COC)CC3)n1 (stereo not drawn) [Compound 196] | 89 (≈ 152 µM) | 77 (≈ 132 µM) | 85 (≈ 145 µM) |
| COc1c(C(=O)O)cnn1-c1cccc(-c2cccc(C)c2OCc2ccc3c(c2Cl)CCN(CC(C)(C)C)C3)n1 [Compound 21] | 96 (≈ 167 µM) | 62 (≈ 108 µM) | 60 (≈ 104 µM) |
| COc1c(C(=O)O)cnn1-c1cccc(-c2cccc(C)c2OCc2ccc3c(c2Cl)CCN(C2CCOC2)C3)n1 (stereo not drawn) [Compound 22] | 97 (≈ 169 µM) | 68 (≈ 118 µM) | 73 (≈ 127 µM) |
| CCOc1c(C(=O)O)cnn1-c1cccc(-c2cccc(C)c2OCc2ccc3c(c2C)CCN(C[C@@H]2CCOC2)C3)n1 [Compound 189] | 89 (≈ 153 µM) | 73 (≈ 125 µM) | 75 (≈ 129 µM) |
| CCOc1c(C(=O)O)cnn1-c1cccc(-c2cccc(C)c2OCc2ccc3c(c2C)CCN(C[C@H]2CCOC2)C3)n1 [Compound 193] | 100 (≈ 172 µM) | 80 (≈ 137 µM) | 73 (≈ 125 µM) |
| COc1c(C(=O)O)cnn1-c1cccc(-c2cccc(C)c2OCc2ccc3c(c2Cl)CCN(CC2(C)COC2)C3)n1 [Compound 19] | 96 (≈ 163 µM) | 70 (≈ 119 µM) | 75 (≈ 127 µM) |
| COc1c(C(=O)O)cnn1-c1cccc(-c2cccc(C)c2OCc2ccc3c(c2)CCN(CC2CC(F)(F)C2)C3)n1 [Compound 26] | 100 (≈ 174 µM) | 80 (≈ 139 µM) | 80 (≈ 139 µM) |
| COc1c(C(=O)O)cnn1-c1cccc(-c2cccc(C)c2OCc2ccc3c(c2C)CCN(C2CCOCC2)CC3)n1 [Compound 184] | 89 (≈ 153 µM) | 76 (≈ 130 µM) | 76 (≈ 130 µM) |
| COc1c(C(=O)O)cnn1-c1cccc(-c2cccc(C)c2OCc2ccc3c(c2C)CCN(C2CCOCC2)C3)n1 [Compound 27] | 110 (≈ 193 µM) | 88 (≈ 155 µM) | 90 (≈ 158 µM) |
| COc1c(C(=O)O)cnn1-c1cccc(-c2cc(C)cc(C)c2OCc2ccc3c(c2C)CCN(C2CCOCC2)C3)n1 [Compound 180] | 100 (≈ 172 µM) | 79 (≈ 136 µM) | 76 (≈ 130 µM) |
| CCOc1c(C(=O)O)cnn1-c1cccc(-c2cccc(C)c2OCc2ccc3c(c2C)CCN(CC2COCCO2)C3)n1 (stereo in doubt) [Compound 185, 1-{6-[2-(2-(S)-1-[1,4]Dioxan-2-ylmethyl-5-methyl-1,2,3,4-tetrahydro-isoquinolin-6-ylmethoxy)-3-methyl-phenyl]-pyridin-2-yl}-5-ethoxy-1H-pyrazole-4-carboxylic acid] | 100 (≈ 167 µM) | 83 (≈ 139 µM) | 82 (≈ 137 µM) |
| COc1c(C(=O)O)cnn1-c1cccc(-c2cccc(C)c2OCc2ccc3c(c2C)CCN(C[C@@H]2CCOC2)C3)n1 [Compound 191] | 100 (≈ 176 µM) | 85 (≈ 149 µM) | 80 (≈ 141 µM) |
| CCOc1c(C(=O)O)cnn1-c1cccc(-c2cccc(C)c2OCc2cc(C)c3c(c2)CCN([C@H]2CCCOC2)C3)n1 [Compound 197] | 110 (≈ 189 µM) | 83 (≈ 142 µM) | 79 (≈ 136 µM) |
| COc1c(C(=O)O)cnn1-c1cccc(-c2cccc(C)c2OCc2ccc3c(c2C)CCN(C[C@@H]2CCCCO2)C3)n1 [Compound 198] | 120 (≈ 206 µM) | 100 (≈ 172 µM) | 93 (≈ 160 µM) |
